The record followed here is ChEMBL document CHEMBL5370537, “Aporphines: A privileged scaffold in CNS drug discovery” (Eur J Med Chem, 2023).

The target of experiment [1] is 5-hydroxytryptamine receptor 7 (Rattus norvegicus, UniProt P32305). As to the kind of experiment: Displacement of [3H]5-HT from rat 5-HT7 assessed as inhibition constant.
Experiment [2] concerns the target T1, 5-hydroxytryptamine receptor 1A (Homo sapiens, UniProt P08908).
T1 sequence (P08908 whole entry): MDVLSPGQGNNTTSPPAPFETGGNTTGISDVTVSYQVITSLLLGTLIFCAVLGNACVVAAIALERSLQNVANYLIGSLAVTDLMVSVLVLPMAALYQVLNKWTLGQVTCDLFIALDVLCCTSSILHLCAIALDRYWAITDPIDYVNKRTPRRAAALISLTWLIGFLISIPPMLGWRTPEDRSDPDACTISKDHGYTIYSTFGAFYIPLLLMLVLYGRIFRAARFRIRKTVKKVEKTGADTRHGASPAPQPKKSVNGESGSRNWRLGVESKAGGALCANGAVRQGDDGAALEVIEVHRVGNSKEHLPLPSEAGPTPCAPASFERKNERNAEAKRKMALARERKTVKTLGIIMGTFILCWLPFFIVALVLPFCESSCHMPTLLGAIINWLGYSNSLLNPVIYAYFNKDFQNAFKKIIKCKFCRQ
Put plainly: Displacement of [3H]8-OH-DPAT from human 5-HT1A assessed as inhibition constant. (Loss of bound radioactivity is the signal in a displacement assay; it reports binding, not function.)

Experiment [3] can be described thus: Inhibition of neuronal excitability in mouse Primary neocortical neuron assessed as reduction in SCO frequency measured after 45 mins by FLIPR assay. The format is functional, cell-based. The settings on record: 0.75 h.
Experiment [4] is described as follows: Inhibition of neuronal excitability in mouse Primary neocortical neuron assessed as reduction in SCO amplitude measured after 45 mins by FLIPR assay. It counts as functional, cell-based. The settings on record: 0.75 h.
Experiment [5] has as its target T2, 5-hydroxytryptamine receptor 2C (Homo sapiens) (UniProt P28335).
T2 sequence (whole entry): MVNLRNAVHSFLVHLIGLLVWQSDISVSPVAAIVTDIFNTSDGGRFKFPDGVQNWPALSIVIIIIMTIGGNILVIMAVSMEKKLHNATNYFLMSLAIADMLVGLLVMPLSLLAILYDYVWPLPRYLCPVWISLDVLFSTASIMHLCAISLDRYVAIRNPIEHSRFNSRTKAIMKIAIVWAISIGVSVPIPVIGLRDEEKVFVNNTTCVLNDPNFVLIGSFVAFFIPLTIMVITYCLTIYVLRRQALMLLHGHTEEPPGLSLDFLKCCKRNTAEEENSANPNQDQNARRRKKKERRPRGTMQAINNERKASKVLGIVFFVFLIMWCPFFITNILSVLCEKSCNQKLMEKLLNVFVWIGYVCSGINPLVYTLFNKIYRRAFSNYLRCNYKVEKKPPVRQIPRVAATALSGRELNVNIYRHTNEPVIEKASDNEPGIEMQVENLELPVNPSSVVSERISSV
As to the kind of experiment: Agonist activity at recombinant human 5-HT2C stably expressed in human T-REx-293 cells measured after 60 mins by FLIPR assay relative to control. The format is functional, cell-based. Conditions: filed as agonist.

Experiment [6] addresses T3, 5-hydroxytryptamine receptor 2C (Homo sapiens, UniProt P28335).
T3 sequence (P28335 whole entry): T2 sequence (whole entry)
As to the kind of experiment: Agonist activity at recombinant human 5-HT2C stably expressed in human T-REx-293 cells measured after 60 mins by FLIPR assay. It counts as functional, cell-based.

A short description of experiment [7]: Selectivity index, ratio of EC50 for agonist activity at 5-HT2C (unknown origin) to EC50 for agonist activity at 5-HT2A (unknown origin).
In experiment [8] the target is T4, 5-hydroxytryptamine receptor 2B (Homo sapiens, UniProt P41595). As to the kind of experiment: Agonist activity at 5-HT2B (unknown origin) relative to control. It counts as functional. Conditions: filed as agonist.
T4 sequence (P41595 whole entry): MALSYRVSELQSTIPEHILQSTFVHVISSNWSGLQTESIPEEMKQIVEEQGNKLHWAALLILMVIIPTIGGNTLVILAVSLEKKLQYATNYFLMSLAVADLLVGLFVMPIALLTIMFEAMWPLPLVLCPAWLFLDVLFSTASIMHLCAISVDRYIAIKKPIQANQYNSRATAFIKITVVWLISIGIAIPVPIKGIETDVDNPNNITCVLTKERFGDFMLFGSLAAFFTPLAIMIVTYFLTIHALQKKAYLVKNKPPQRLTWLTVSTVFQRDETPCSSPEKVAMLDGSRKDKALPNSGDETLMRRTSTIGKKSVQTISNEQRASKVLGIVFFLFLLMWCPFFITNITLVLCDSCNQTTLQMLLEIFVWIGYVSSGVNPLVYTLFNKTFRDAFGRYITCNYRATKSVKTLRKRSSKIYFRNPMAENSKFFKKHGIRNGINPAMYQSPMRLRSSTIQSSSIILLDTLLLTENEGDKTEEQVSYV
Experiment [9] deals with T5, 5-hydroxytryptamine receptor 2A (Homo sapiens, UniProt P28223). As to the kind of experiment: Agonist activity at 5-HT2A (unknown origin) relative to control. The format is functional. The settings on record: filed as agonist.
T5 sequence (P28223 whole entry): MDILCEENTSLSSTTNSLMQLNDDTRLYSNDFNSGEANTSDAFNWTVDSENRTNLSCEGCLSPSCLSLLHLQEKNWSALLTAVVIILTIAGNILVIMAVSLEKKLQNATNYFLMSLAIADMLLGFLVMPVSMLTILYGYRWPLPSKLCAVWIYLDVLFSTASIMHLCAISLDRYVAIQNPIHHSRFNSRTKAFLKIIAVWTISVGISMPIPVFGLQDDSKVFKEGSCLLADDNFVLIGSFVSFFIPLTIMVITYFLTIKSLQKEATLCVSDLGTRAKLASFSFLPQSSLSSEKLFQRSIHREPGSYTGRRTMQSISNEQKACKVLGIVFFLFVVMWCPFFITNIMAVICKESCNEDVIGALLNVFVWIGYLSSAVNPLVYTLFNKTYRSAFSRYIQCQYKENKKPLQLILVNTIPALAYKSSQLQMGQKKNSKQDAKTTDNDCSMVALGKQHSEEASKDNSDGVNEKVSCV
Experiment [10] in a line: Selectivity index, ratio of EC50 for agonist activity at 5-HT2C (unknown origin) to EC50 for agonist activity at 5-HT2B (unknown origin).
The target of experiment [11] is T2, 5-hydroxytryptamine receptor 2C (Homo sapiens). As to the kind of experiment: Agonist activity at 5-HT2C (unknown origin) relative to control. It counts as functional. The settings on record: filed as agonist.
Experiment [12] has as its target T5, 5-hydroxytryptamine receptor 2A. As to the kind of experiment: Agonist activity at 5-HT2A (unknown origin). The format is functional.
The target in experiment [13] is T4, 5-hydroxytryptamine receptor 2B. Put plainly: Agonist activity at 5-HT2B (unknown origin). It counts as functional.
In experiment [14] the target is T3, 5-hydroxytryptamine receptor 2C. Put plainly: Agonist activity at 5-HT2C (unknown origin). The format is functional.

5-hydroxytryptamine receptor 7, sequence (P32305 whole entry): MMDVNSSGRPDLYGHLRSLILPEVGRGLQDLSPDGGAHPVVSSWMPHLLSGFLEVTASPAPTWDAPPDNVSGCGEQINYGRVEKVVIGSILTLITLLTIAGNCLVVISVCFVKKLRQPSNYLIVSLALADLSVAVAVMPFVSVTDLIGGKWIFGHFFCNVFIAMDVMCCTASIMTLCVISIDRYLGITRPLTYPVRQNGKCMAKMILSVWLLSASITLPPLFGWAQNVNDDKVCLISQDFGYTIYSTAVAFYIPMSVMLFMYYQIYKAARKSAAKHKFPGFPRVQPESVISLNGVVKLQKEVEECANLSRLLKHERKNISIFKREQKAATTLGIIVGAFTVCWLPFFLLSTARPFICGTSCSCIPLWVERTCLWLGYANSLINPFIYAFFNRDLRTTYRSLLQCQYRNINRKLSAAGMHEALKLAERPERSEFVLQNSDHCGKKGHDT

With `CN1CCc2ccc3c4c2[C@H]1Cc1cccc(c1-4)[C@]3(C)O`, the Ki – broadly, a measure of affinity in units of concentration, obtained from inhibition or displacement – came to 6.9 nM in experiment [1] and 61.5 nM in experiment [2].
With `COc1ccc2c(c1O)-c1c3c(cc4c1[C@H](C2)N(C)CC4)OCO3` [(S)-BULBOCAPNINE], the IC50 – broadly, the concentration that gives 50% inhibition – in experiment [3] came out at 11.6 µM; in [4], 12.9 µM.
Take `COc1ccc2c3c1-c1ccccc1CC3NCC2` (centres undefined): the Emax – broadly, the greatest response seen or fitted, relative to the assay's reference – in experiment [5] worked out at 96%. In addition, the EC50 (in general, the concentration needed to bring the measured effect to its halfway point) in [6] is 103 nM.
With `Oc1cc2c3c(c1Cl)-c1ccccc1CC3NCC2` (centres undefined), the Ratio EC50 came out at 25 in experiment [7] and 12 in [10]. Moreover, the Emax came out at 63.5% in [8], 44.9% in [9] and 102% in experiment [11]. Further, the EC50 in experiment [12] amounted to 596 nM; in experiment [13], 278 nM; in experiment [14], 23.6 nM.
